# Source: ChEMBL document CHEMBL3217539, “Design, synthesis and biological evaluation of new molecules inhibiting epidermal growth factor receptor threonine790 methionine790 mutant” (Medchemcomm, 2012)
# Calls of active or inactive are those of the source. The rule behind the calls is not given here.
# Assays:
# [1] = Cytotoxicity against human HL7702 cells expressing wild type EGFR after 72 hrs by MTS assay; format: ADME, cell-based; settings: L02, 72 h
# [2] = target: Epidermal growth factor receptor (Homo sapiens, UniProt P00533, L858R/T790M); experiment: Inhibition of EGFR kinase L858R/T790M double mutant (unknown origin) after 1.5 hrs by FRET-based Z'-Lyte assay; format: protein assay
# [3] = target: Epidermal growth factor receptor (Homo sapiens, UniProt P00533); experiment: Inhibition of wild type EGFR kinase (unknown origin) after 1.5 hrs by FRET-based Z'-Lyte assay
# [4] = Cytotoxicity against human HCC827 cells expressing EGFR kinase E746 to A750 deletion mutant after 72 hrs by MTS assay; format: functional, cell-based; settings: HCC827, 72 h
# [5] = target: Epidermal growth factor receptor (Homo sapiens, UniProt P00533, L858R); experiment: Inhibition of EGFR kinase L858R mutant (unknown origin) after 1.5 hrs by FRET-based Z'-Lyte assay; format: protein assay
# [6] = target: Epidermal growth factor receptor (Homo sapiens, UniProt P00533, T790M); experiment: Inhibition of EGFR kinase T790M mutant (unknown origin) after 1.5 hrs by FRET-based Z'-Lyte assay; format: protein assay
# [7] = target: Epidermal growth factor receptor (Homo sapiens, UniProt P00533, L861Q); experiment: Inhibition of EGFR kinase L861Q mutant (unknown origin) after 1.5 hrs by FRET-based Z'-Lyte assay; format: protein assay
# NCI-H1975 = experiment: cells; format: functional, cell-based; settings: Homo sapiens, NCI-H1975, 72 h
# [8] = test system: Epidermal growth factor receptor (Homo sapiens), P00533 [L858R,T790M]; experiment: Inhibition of EGFR kinase L858R/T790M double mutant phosphorylation in human H1975 cells after 24 hrs by Western blotting analysis; format: cell-based
# [9] = test system: Epidermal growth factor receptor (Homo sapiens), P00533 [L858R,T790M]; experiment: Inhibition of EGFR kinase L858R/T790M double mutant phosphorylation in human H1975 cells at >= 50 nM after 24 hrs by Western blotting analysis; format: cell-based
# [10] = Selectivity ratio of IC50 for human HL7702 cells expressing wild type EGFR to IC50 for human H1975 cells expressing EGFR kinase L858R/T790M double mutant; format: ADME, cell-based; settings: read-out: Ratio IC50
# [11] = Selectivity ratio of IC50 for human HL7702 cells expressing wild type EGFR to IC50 for human H1975 cells expressing EGFR kinase […]; format: ADME, cell-based; settings: read-out: Ratio IC50
# Sequence of Epidermal growth factor receptor (Homo sapiens, UniProt P00533, T790M) (P00533 25-1210 T790M limits assumed): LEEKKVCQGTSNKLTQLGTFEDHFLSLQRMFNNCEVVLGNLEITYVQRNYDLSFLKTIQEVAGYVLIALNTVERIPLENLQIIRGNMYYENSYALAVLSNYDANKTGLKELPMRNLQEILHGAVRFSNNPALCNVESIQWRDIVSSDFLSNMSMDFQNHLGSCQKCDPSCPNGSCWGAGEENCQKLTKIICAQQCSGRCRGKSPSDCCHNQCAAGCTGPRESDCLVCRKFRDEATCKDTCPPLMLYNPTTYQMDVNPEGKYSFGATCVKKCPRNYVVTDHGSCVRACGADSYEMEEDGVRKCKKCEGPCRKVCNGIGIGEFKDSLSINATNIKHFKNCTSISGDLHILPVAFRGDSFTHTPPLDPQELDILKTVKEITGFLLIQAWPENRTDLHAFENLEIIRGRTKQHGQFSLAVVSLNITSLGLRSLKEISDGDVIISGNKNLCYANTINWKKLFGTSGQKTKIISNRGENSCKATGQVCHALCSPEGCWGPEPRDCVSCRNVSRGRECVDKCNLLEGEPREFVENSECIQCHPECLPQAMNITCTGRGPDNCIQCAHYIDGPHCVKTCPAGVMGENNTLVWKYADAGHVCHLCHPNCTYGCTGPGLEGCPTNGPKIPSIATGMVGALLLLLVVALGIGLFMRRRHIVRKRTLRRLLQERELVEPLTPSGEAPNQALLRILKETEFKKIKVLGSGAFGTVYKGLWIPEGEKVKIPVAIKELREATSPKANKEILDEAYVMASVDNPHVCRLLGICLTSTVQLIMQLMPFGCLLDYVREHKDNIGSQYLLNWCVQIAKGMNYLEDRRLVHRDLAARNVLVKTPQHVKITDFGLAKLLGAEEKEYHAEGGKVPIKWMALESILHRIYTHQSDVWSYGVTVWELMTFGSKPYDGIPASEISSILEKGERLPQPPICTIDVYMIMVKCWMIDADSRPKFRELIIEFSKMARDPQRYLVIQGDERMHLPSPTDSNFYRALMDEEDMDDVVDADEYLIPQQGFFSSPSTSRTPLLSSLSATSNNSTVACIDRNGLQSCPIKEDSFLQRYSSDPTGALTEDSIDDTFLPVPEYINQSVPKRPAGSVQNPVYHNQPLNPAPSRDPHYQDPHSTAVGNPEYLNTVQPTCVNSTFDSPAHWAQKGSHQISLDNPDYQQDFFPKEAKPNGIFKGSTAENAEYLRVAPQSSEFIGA
# Sequence of Epidermal growth factor receptor (Homo sapiens, UniProt P00533) (P00533 whole entry): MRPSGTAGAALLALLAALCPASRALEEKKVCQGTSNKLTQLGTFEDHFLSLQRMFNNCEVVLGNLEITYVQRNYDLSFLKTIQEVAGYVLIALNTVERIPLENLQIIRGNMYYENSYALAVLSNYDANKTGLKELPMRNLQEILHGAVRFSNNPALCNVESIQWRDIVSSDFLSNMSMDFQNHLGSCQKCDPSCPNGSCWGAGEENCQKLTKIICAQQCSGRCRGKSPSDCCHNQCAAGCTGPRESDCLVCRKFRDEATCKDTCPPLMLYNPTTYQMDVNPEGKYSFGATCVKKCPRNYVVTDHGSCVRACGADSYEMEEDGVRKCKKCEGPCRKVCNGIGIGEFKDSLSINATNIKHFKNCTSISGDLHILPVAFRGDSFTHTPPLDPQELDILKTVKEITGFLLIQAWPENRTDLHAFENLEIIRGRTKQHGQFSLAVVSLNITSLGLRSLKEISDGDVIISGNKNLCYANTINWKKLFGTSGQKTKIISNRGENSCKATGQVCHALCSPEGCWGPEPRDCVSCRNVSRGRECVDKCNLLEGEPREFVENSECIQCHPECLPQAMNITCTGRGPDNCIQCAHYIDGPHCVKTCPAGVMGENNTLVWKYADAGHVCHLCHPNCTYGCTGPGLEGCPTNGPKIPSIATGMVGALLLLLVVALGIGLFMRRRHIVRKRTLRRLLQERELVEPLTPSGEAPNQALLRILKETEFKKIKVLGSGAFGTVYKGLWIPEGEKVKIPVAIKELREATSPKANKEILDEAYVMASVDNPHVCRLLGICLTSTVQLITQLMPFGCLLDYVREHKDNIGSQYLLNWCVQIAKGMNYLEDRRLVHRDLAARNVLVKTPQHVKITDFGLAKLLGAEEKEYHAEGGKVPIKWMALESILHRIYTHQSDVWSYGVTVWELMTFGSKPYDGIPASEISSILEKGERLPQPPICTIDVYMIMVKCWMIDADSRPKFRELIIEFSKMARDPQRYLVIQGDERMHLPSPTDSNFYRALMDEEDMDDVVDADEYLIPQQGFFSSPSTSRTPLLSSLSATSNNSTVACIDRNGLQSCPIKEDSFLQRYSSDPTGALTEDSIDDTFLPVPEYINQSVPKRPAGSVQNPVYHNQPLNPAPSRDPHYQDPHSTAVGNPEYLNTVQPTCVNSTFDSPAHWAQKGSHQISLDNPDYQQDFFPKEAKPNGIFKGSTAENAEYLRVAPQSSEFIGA
# Sequence of Epidermal growth factor receptor (Homo sapiens, UniProt P00533, L858R) (P00533 25-1210 L858R limits assumed): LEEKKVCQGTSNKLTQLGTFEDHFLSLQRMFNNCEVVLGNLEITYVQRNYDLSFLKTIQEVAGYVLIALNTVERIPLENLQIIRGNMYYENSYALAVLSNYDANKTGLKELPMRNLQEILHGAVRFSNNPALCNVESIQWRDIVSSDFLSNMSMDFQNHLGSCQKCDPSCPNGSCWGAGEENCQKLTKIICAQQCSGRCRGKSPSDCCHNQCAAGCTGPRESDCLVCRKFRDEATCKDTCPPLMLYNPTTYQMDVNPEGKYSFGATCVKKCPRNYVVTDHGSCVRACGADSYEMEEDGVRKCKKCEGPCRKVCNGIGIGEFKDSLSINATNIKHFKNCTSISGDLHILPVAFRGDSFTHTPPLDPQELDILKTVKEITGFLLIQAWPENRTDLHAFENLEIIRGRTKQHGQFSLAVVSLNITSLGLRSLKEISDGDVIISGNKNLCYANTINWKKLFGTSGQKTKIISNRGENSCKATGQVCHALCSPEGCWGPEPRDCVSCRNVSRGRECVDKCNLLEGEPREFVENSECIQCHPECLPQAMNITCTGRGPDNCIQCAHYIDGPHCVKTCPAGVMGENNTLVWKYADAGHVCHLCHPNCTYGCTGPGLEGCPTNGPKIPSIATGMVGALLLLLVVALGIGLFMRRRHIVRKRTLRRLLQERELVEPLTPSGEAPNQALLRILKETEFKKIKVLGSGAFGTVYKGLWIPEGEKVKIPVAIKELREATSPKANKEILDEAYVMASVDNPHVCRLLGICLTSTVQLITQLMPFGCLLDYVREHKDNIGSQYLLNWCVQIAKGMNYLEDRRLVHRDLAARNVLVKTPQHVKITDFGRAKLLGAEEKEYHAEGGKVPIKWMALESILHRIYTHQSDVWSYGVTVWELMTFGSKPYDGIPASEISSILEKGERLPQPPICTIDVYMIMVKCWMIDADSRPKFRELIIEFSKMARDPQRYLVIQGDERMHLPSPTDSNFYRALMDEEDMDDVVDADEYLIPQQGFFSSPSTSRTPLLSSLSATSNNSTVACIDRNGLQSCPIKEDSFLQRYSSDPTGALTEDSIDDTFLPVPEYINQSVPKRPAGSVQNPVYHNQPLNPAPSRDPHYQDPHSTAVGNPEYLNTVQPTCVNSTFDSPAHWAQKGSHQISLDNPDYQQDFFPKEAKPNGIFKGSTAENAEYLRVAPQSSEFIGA
# Sequence of Epidermal growth factor receptor (Homo sapiens, UniProt P00533, L858R/T790M) (P00533 25-1210 T790M/L858R limits assumed): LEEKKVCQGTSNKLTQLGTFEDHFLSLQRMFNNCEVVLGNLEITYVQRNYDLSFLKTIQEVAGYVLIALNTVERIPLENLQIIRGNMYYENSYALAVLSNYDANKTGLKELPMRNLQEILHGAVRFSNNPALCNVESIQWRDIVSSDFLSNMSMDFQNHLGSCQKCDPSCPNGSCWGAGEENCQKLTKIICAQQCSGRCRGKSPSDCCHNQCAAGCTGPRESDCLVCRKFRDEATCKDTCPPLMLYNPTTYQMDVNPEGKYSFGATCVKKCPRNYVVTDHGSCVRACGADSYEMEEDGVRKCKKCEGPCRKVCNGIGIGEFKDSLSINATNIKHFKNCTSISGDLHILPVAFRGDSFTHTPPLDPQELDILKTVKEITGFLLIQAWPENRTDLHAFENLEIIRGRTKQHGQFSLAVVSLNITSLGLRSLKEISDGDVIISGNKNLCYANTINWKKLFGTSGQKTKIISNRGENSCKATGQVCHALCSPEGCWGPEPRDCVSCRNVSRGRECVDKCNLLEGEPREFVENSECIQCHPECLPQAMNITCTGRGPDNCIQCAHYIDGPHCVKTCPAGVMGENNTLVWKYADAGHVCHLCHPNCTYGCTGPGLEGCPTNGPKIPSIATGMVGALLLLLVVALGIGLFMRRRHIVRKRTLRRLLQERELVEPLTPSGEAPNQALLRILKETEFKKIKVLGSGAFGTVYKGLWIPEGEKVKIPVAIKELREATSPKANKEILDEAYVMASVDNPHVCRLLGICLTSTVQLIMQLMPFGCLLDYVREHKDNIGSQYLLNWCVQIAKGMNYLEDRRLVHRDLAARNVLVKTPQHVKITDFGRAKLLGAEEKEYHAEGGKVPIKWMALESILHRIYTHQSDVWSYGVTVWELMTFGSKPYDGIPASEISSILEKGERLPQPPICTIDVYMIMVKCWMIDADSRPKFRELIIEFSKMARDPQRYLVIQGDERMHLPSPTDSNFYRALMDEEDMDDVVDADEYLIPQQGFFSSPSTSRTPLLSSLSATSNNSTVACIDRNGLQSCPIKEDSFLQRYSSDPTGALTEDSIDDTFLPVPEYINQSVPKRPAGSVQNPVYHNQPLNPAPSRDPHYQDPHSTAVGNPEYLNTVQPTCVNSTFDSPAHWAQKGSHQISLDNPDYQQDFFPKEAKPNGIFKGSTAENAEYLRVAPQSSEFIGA
Compound,IC50 [2] [nM],IC50 [3] [nM],IC50 [5] [nM],IC50 [6] [nM],IC50 [7] [nM],IC50 (NCI-H1975) [nM],inhibition [8],inhibition [9],IC50 [1] [nM],IC50 [4] [nM],selectivity ratio [10],selectivity ratio [11]
C=CC(=O)Nc1cccc(N2C(=O)CN(Cc3ccccc3)C(=O)c3cnc(Nc4ccc(N5CCN(C)CC5)cc4OC)nc32)c1,32.8,6.26,9.12,84.2,8.4,2590,,,17500,87,,
C=CC(=O)Nc1cccc(Oc2nc(Nc3ccc(N4CCN(C)CC4)cc3OC)ncc2Cl)c1,,,,,,87,,,9150,24,,
C=CC(=O)Nc1cccc(N2C(=O)C(c3ccccc3)N(C)C(=O)c3cnc(Nc4ccc(N5CCN(C)CC5)cc4OC)nc32)c1 (stereo not given),> 1000,77.2,174,778,77.1,5900,,,14300,3820,,
C=CC(=O)Nc1cccc(N2C(=O)C(Cc3ccc(Cl)cc3)N(C)C(=O)c3cnc(Nc4ccc(N5CCN(C)CC5)cc4OC)nc32)c1 (stereo not given),,,,,,470,,,8730,300,,
C=CC(=O)Nc1cccc(N2C(=O)C3CCCCN3C(=O)c3cnc(Nc4ccc(N5CCN(C)CC5)cc4OC)nc32)c1 (stereo not given),40.7,2.45,4.3,115,2.74,990,,,23000,68,,
C=CC(=O)Nc1cccc(N2C(=O)C(Cc3ccc(OC)cc3)N(C)C(=O)c3cnc(Nc4ccc(N5CCN(C)CC5)cc4OC)nc32)c1 (stereo not given),53.9,33.9,50,88.3,97.1,820,,,16200,280,,
C=CC(=O)Nc1cccc(N2C(=O)C3CCCN3C(=O)c3cnc(Nc4ccc(N5CCN(C)CC5)cc4OC)nc32)c1 (stereo not given),> 1000,> 1000,> 1000,> 1000,> 1000,31400,,,16100,6900,,
C=CC(=O)Nc1cccc(N2C(=O)C(Cc3ccc(F)cc3)N(C)C(=O)c3cnc(Nc4ccc(N5CCN(C)CC5)cc4OC)nc32)c1 (stereo not given),14.1,5.78,24.5,17.9,7.57,69,Dose-dependent effect,Active,13700,71,200,200
C=CC(=O)Nc1cccc(N2C(=O)C(Cc3ccccc3)N(C)C(=O)c3cnc(Nc4ccc(N5CCN(C)CC5)cc4OC)nc32)c1 (stereo not given),8.95,4.68,8.33,16.5,5.3,89,Dose-dependent effect,Active,25600,24,200,200

# Further lines, with some results ahead:
IC50 [2] [nM],IC50 [3] [nM],IC50 [5] [nM],IC50 [6] [nM],IC50 [7] [nM],IC50 (NCI-H1975) [nM],inhibition [8],inhibition [9],Compound,IC50 [1] [nM],IC50 [4] [nM],selectivity ratio [10],selectivity ratio [11]
52.6,9.14,15.1,110,22.3,11700,,,C=CC(=O)Nc1cccc(N2C(=O)CN(C)C(=O)c3cnc(Nc4ccc(N5CCN(C)CC5)cc4OC)nc32)c1,44500,1680,,
87.5,10.2,13.2,86.8,7.25,1110,,,C=CC(=O)Nc1cccc(N2C(=O)C(C(C)CC)N(C)C(=O)c3cnc(Nc4ccc(N5CCN(C)CC5)cc4OC)nc32)c1 (stereo not given),15000,600,,
24.8,24.8,56.5,44,24.1,650,,,C=CC(=O)Nc1cccc(N2C(=O)C(C(C)C)N(C)C(=O)c3cnc(Nc4ccc(N5CCN(C)CC5)cc4OC)nc32)c1 (stereo not given),28200,69,,
50.9,22.1,41.6,122,6.02,920,,,C=CC(=O)Nc1cccc(N2C(=O)C(C)N(C)C(=O)c3cnc(Nc4ccc(N5CCN(C)CC5)cc4OC)nc32)c1 (stereo not given),49200,130,,
194,6.99,30.7,221,6.86,9190,,,C=CC(=O)Nc1cccc(N2C(=O)CN(c3ccccc3)C(=O)c3cnc(Nc4ccc(N5CCN(C)CC5)cc4OC)nc32)c1,1710,140,,
